Source: patent US20240140970A1, “A […], AND PREPARATION METHOD AND USE THEREOF” (ASCENTAWITS PHARMACEUTICALS, LTD., priority 2021, published 2024)
“And” between values parts separate entries of the source, which are not always exact repeats. Equal values may be shown once.

Assay: Experimental table stability of AST-2660 in human plasma at room temperature (LC-MS/MS)
Format: in vitro ADME
Settings: for AST-2660 concentration, Mean value / AST-2660 concentration, single replicates / RE (%) vs nominal: human plasma, room temperature
Procedure: The detection method established in example 4 was used to detect the content of AST-2660 in the human plasma to be tested.
Matrix: the mixed normal human plasma containing anticoagulant (K2 EDTA) • a: the internal standard working solution: AST-2660-D8 was taken, added with methanol, and diluted to prepare a solution containing about 100 ng per 1 ml. • b: the solution to be tested (no internal standard compound was added to the solution to be tested at this time): it was obtained by taking a blood sample to be tested. • c: the standard working solution (no internal standard compound was added to the standard working solution at this time): an appropriate amount of AST-2660 was taken and accurately weighed, dissolved with methanol, and diluted to prepare a solution containing about 1.0 mg per 1 ml, which was used as the standard working stock solution. An appropriate amount of the standard working stock solution was taken, added with the matrix and diluted to prepare standard working solutions with different concentrations containing about 200 ng, 160 ng, 100 ng, 50 ng, 10 ng, 2.0 ng, 1.0 ng and 0.5 ng per 1 ml, respectively. (The solution was stored at −70° C.) • d: the quality control sample solution: an appropriate amount of AST-2660 was taken and accurately weighed, dissolved with methanol, and diluted to prepare a solution containing about 10 μg per 1 ml, which was used as the quality control working stock solution. An appropriate amount of the quality control working stock solution was taken, added with matrix to prepare quality control working solutions with different concentrations containing about 150 ng, 60 ng, 15 ng, 1.5 ng and 0.5 ng per 1 ml. (The solution was stored at −70° C.)
The solution to be tested, the standard working solution and the quality control sample solution were thawed at room temperature and mixed uniformly. 100 μl of the above solution was respectively taken, added with 20 μl of the internal standard and 500 μl of methanol, and vortexed for 3 minutes to mix uniformly, and then centrifuged for 10 minutes at 2143 rcf. 450 μl of the supernatant was taken and dried, and 150 μl of methanol was added for redissolution, and sonicated. Then the plates were centrifuged for 3 minutes at 4° C. It was obtained by taking […] of supernatant.
Liquid phase conditions: A SHARC 1, 3 μm, 2.1*50 mm or chromatograph column with equivalent performance was used; the mobile phase was a methanol solution comprising low content of ammonium acetate; the mobile phase B was acetonitrile; the gradient elution was performed according to the following table, column temperature: 20° C.; injection volume: 5 μl.
Mass spectrometric conditions: electrospray ion source with negative ion scanning mode; spray potential: −4500 V; ion source temperature: 500° C.; collision energy (CE): −22 eV; declustering potential (DP): −55V; entrance potential (EP): −10V; collision chamber exit potential (CXP): −16V; dwell time: 100 ms; high purity nitrogen was used for all gases; AST-2660 ions pairs: m/z 147.0→m/z 62.9; the internal standard AST-2660-D8 ion pairs: m/z 155.0→m/z 62.9.
The AST-2660 standard working solution, blank sample, zero concentration sample, sample solution to be tested and quality control sample solution with different concentrations after extraction were respectively taken and injected into LC-MS/MS for detection.
Calculation results: the relationship function y=f (x) of the ratio of the peak area of the AST-2660 to that of the internal standard was obtained from AST-2660 standard working solutions with different concentrations. The ratio of the peak area of the AST-2660 to that of the internal standard was determined from the solution to be tested after extraction, and substituted into the relationship function y=f (x) to calculate the concentration of the metabolite II in the solution to be tested.

[1] = DilQC (10-fold dilution) nominal 1500 ng/ml, 0 hour
[2] = DilQC (10-fold dilution) nominal 1500 ng/ml, 4 hours
[3] = DilQC (10-fold dilution) nominal 1500 ng/ml, 24 hours
[4] = QC1 nominal 1.50 ng/ml, 4 hours
[5] = QC1 nominal 1.50 ng/ml, 24 hours
[6] = QC4 nominal 150 ng/ml, 24 hours

Structure (SMILES): O=P([O-])(N1CC1)N1CC1.[Na+] [AST-2660]
- stability (in words) (human plasma samples at room temperature): not stable
- AST-2660 concentration, Mean value [1]: 1680 ng/mL
- AST-2660 concentration, single replicates [1]: 1610 ng/mL and 1770 ng/mL and 1700 ng/mL and 1640 ng/mL
- RE (%) vs nominal [1]: 12.0%
- AST-2660 concentration, Mean value [2]: 1593 ng/mL
- AST-2660 concentration, single replicates [2]: 1500 ng/mL and 1710 ng/mL and 1600 ng/mL and 1560 ng/mL
- RE (%) vs nominal [2]: 6.2%
- AST-2660 concentration, Mean value [3]: 1455 ng/mL
- AST-2660 concentration, single replicates [3]: 1380 ng/mL and 1500 ng/mL and 1480 ng/mL and 1460 ng/mL
- RE (%) vs nominal [3]: −3.0%
- AST-2660 concentration, Mean value (QC1 nominal 1.50 ng/ml, 0 hour): 1.42 ng/mL
- AST-2660 concentration, single replicates (QC1 nominal 1.50 ng/ml, 0 hour): 1.44 ng/mL and 1.32 ng/mL and 1.38 ng/mL and 1.55 ng/mL
- RE (%) vs nominal (QC1 nominal 1.50 ng/ml, 0 hour): −5.2%
- AST-2660 concentration, Mean value [4]: 1.35 ng/mL
- AST-2660 concentration, single replicates [4]: 1.34 ng/ml (2×) and 1.31 ng/ml and 1.42 ng/ml
- RE (%) vs nominal [4]: −9.8%
- AST-2660 concentration, Mean value [5]: 1.32 ng/mL
- AST-2660 concentration, single replicates [5]: 1.33 ng/mL and 1.28 ng/mL and 1.38 ng/mL and 1.27 ng/mL
- RE (%) vs nominal [5]: −12.3%
- AST-2660 concentration, Mean value (QC4 nominal 150 ng/ml, 0 hour): 136 ng/mL
- AST-2660 concentration, single replicates (QC4 nominal 150 ng/ml, 0 hour): 130 ng/mL and 142 ng/mL and 135 ng/mL and 137 ng/mL
- RE (%) vs nominal (QC4 nominal 150 ng/ml, 0 hour): −9.3%
- AST-2660 concentration, Mean value (QC4 nominal 150 ng/ml, 4 hours): 138 ng/mL
- AST-2660 concentration, single replicates (QC4 nominal 150 ng/ml, 4 hours): 130 ng/mL and 141 ng/mL and 136 ng/mL and 145 ng/mL
- RE (%) vs nominal (QC4 nominal 150 ng/ml, 4 hours): −8.0%
- AST-2660 concentration, Mean value [6]: 125 ng/mL
- AST-2660 concentration, single replicates [6]: 117 ng/mL and 128 ng/mL and 124 ng/mL and 129 ng/mL
- RE (%) vs nominal [6]: −17.0%
